Experimental data as given in article PMC13064039, “Exploring the binding interaction of rupatadine with bovine serum albumin using multi-spectroscopic and molecular modeling approaches” (BMC Chemistry, 2026).

Assays:
[1] = molecular target: T1, bovine serum albumin (BSA) (Bos taurus, UniProt P02769); experiment: Fluorescence quenching of BSA by RUPA (Stern-Volmer, modified Stern-Volmer, van't Hoff analysis); type: binding; details: for Ksv (Stern-Volmer quenching constant): BSA 2 µM, RUPA 0-100 µM
Protocol: The fluorescence data were corrected for the inner filter effect (IFE) according to the Lakowicz method to ensure that the obtained binding parameters were not impacted by absorption artifacts.
To account for the possible influence of inner filter effects (IFE), the fluorescence intensities were corrected using the following formula (Eq. 1): 1
The process of fluorescence quenching was determined using the Stern-Volmer equation (Eq. 2): 2
The KSV and Kq values were determined by the graph of F0/F against [Q]
Stoichiometric analysis is used to define the various equilibria for a macromolecule’s binding of a ligand by binding sites (n). The number of binding sites (n) and the binding constant (Kb) were calculated using the modified Stern–Volmer equation (Eq. 3). 3
The thermodynamic characteristics of the binding reaction serve as the primary evidence for the binding force. Hydrogen bonds, hydrophobic forces, electrostatic interactions, van der Waals interactions, and other binding forces could all be present between small molecules and biomacromolecules. The temperature dependence of the binding constant was thus measured for this purpose at three distinct temperatures: 303, 310, and 318 K (Fig. 4).
The Gibbs–Helmholtz equation provided below was used to assess the free energy change (ΔG) value (Eq. 5).

[2] = molecular target: T1, bovine serum albumin (BSA); experiment: Competitive binding analysis using site probes (phenylbutazone site I, diazepam site II); details: site marker competition
Protocol: Phenylbutazone and diazepam are the site probes for sites Ⅰ and Ⅱ, respectively. The BSA and site probe concentrations in this experiment were maintained at 2 µM and 10 µM, respectively. Rupatadine concentrations ranged from 10 to 100 µM. After excitation at 279 nm, fluorescence intensity measurements were made at 341 nm. At 303 K, measurements were made.

[3] = molecular target: T1, bovine serum albumin (BSA); experiment: Synchronous fluorescence of BSA with RUPA; type: binding; details: RUPA 0-100 µM, BSA 2 µM, 303 K
From the text: Using synchronous fluorescence, the influence of the ligand on the protein has been thoroughly investigated. The distinctive details regarding the protein’s Tyr and Trp residues can be gained by fixing the scanning interval (∆λ) between the excitation and emission wavelengths at 15 and 60 nm, respectively.

[4] = molecular target: T1, bovine serum albumin (BSA); experiment: FT-IR spectroscopy of BSA with and without RUPA; details: BSA 2 µM + RUPA 40 µM, pH 7.4, 303 K; free BSA 1646
[5] = design: method as in PMID 23160091; details: cited from earlier work
[6] = tested on: ovarian cancer cells (platelet-activating factor receptor); design: method as in PMID 34571986; details: in vitro; targets the platelet-activating factor receptor; cited from earlier work

T1 sequence (P02769 25-607): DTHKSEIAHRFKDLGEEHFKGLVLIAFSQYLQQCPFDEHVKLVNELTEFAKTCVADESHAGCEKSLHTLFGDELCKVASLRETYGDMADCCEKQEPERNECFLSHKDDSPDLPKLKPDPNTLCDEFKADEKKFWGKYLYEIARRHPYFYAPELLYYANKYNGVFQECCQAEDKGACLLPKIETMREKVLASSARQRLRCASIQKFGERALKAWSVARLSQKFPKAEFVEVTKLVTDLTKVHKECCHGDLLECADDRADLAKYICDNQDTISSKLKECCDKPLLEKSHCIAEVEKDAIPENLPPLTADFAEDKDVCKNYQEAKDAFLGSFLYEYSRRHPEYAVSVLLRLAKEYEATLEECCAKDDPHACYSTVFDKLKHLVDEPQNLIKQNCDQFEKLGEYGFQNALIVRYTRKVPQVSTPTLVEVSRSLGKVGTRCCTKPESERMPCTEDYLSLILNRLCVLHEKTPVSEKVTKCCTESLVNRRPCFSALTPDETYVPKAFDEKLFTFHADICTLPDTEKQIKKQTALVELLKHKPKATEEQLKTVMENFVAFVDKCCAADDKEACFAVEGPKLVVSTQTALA

Cc1cncc(CN2CCC(=C3c4ccc(Cl)cc4CCc4cccnc43)CC2)c1 [RUPA, 13-chloro-2-[1-[(5-methylpyridin-3-yl)methyl]piperidin-4-ylidene]−4-azatricyclo [9.4.0.03,8] pentadeca-1(11),3(8),4,6,12,14-hexaene]
n (number of binding sites) ([1]; 303 K): 0.57
Ksv (Stern-Volmer quenching constant) ([1]; 303 K, pH 7.4): 1.07 × 10^4 L.mol^− 1
n (number of binding sites) ([1]; 310 K): 0.83
Ksv (Stern-Volmer quenching constant) ([1]; 310 K, pH 7.4): 0.82 × 10^4 L.mol^− 1
Kq (quenching rate constant) ([1]; 310 K, τ0 = 10^-8 s): 0.82 × 10^12 L.mol^− 1.s^− 1
n (number of binding sites) ([1]; 318 K): 1.06
Ksv (Stern-Volmer quenching constant) ([1]; 318 K, pH 7.4): 0.48 × 10^4 L.mol^− 1
∆G^o (Gibbs free energy change) ([1]; pH 7.4, 303 K): -3.4823 kcal/mol
∆G^o (Gibbs free energy change) ([1]; pH 7.4, 318 K): -5.2287 kcal/mol
∆H^o (enthalpy change) ([1]; pH 7.4, van't Hoff, 303-318 K): 31.7935 kcal/mol
∆S^o (entropy change) ([1]; pH 7.4, van't Hoff, 303-318 K): 0.487 KJ mol^− 1 K^− 1
enthalpy change (ΔH) ([1]; within the examined temperature range): 133.024 kJ mol^− 1
binding site of RUPA on BSA [2]: site I
shift in synchronous fluorescence ([3]; ∆λ = 15 nm (Tyr)): no shift
red shift of ∆λmax in synchronous fluorescence ([3]; ∆λ = 60 nm (Trp)): about 2 nm
amide I peak location of BSA following the RUPA reaction [4]: 1642 cm^− 1
attached to plasma proteins [5]: approximately 99%
effect on ovarian cancer cell proliferation and migration [6]: prevent ovarian cancer cells from proliferating and migrating
